ChEMBL document CHEMBL4425144, “Discovery and Structural Optimization of N5-Substituted 6,7-Dioxo-6,7-dihydropteridines as Potent and Selective Epidermal Growth Factor Receptor (EGFR) Inhibitors against L858R/T790M Resistance Mutation” (J Med Chem, 2016)
Active and inactive are the calls of the source. The calls are words filed in the database; no cut-off is given here.

What was measured:
A-431 [1] = assay: Antiproliferative activity against human A431 cells incubated for 72 hrs by SRB assay; type: functional, cell-based; conditions: A-431, 72 h
[2] = AUC (0 to t) in ICR mouse at 10 mg/kg, po by LC-MS/MS method; type: ADME, organism-based; conditions: in vivo
[3] = target: Epidermal growth factor receptor (Homo sapiens, UniProt P00533); assay: Inhibition of wild type EGFR kinase domain (unknown origin) expressed using baculovirus expression system incubated for 1 hr using Poly(Glu,Tyr) 4:1 by ELISA method
Epidermal growth factor receptor, sequence (P00533 whole entry, the tested form may be a part): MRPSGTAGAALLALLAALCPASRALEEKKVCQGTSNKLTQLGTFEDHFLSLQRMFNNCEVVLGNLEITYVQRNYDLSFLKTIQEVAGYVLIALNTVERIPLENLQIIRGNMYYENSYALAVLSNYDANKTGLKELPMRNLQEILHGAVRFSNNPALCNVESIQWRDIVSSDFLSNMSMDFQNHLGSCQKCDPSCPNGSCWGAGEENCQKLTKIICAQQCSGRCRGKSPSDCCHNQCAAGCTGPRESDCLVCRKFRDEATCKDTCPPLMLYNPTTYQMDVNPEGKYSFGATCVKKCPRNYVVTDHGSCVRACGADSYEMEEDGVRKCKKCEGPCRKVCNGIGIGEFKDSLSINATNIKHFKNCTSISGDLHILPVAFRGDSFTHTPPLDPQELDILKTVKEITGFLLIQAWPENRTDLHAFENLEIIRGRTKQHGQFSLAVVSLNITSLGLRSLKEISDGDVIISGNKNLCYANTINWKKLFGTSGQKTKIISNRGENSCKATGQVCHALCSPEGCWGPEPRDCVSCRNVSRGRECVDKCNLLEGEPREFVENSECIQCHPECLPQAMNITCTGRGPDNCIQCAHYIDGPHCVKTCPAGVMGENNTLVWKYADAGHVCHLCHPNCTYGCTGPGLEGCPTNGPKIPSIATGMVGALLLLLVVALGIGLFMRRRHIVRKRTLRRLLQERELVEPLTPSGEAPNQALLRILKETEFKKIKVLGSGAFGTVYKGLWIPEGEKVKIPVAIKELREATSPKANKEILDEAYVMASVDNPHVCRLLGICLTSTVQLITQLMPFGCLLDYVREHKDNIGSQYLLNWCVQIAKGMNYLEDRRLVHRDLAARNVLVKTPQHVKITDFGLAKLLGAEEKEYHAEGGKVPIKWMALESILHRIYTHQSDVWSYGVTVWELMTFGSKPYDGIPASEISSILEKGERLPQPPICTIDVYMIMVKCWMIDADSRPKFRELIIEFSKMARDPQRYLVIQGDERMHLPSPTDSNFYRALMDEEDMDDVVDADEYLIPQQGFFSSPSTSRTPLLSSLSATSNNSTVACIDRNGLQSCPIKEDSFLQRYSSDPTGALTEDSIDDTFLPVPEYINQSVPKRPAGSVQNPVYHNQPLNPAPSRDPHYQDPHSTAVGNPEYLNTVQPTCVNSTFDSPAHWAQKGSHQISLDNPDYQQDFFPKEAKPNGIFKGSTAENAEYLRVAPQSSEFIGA

Mus musculus = assay: Inhibition of EGFR kinase domain L858R/T790M mutant phosphorylation in human NCI-H1975 cells xenografted BALB/c mouse at 50 mg/kg, po qd for 14 consecutive days by Western blot method; type: functional, organism-based
[4] = Dissociation constant, pKa of the compound by Sirius T3 based assay; type: physicochemical
[5] = Half life in ICR mouse at 10 mg/kg, po by LC-MS/MS method; type: ADME, organism-based; conditions: in vivo
[6] = Clearance in ICR mouse at 1 mg/kg, iv by LC-MS/MS method; type: ADME, organism-based; conditions: in vivo
[7] = target: Calcium/calmodulin-dependent protein kinase type 1 (Homo sapiens) (UniProt Q14012); assay: Inhibition of human CAMK1 expressed in bacterial system assessed as remaining enzyme activity at 1000 nM relative to untreated control
Calcium/calmodulin-dependent protein kinase type 1 (Homo sapiens), sequence (Q14012 whole entry, looked up): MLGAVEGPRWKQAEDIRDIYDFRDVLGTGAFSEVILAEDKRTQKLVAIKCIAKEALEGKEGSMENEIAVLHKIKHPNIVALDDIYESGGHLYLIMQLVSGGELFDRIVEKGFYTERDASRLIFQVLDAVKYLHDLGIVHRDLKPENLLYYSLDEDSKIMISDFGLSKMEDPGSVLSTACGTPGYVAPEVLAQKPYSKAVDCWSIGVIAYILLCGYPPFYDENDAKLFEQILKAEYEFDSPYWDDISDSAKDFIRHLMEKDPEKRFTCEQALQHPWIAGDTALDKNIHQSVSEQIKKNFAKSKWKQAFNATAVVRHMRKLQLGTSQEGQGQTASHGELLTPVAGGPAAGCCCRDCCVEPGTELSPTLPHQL

[8] = target: T1, Tyrosine-protein kinase TXK (Homo sapiens) (UniProt P42681); assay: Inhibition of human TXK expressed in bacterial system assessed as remaining enzyme activity at 1000 nM relative to untreated control
T1 sequence (whole entry): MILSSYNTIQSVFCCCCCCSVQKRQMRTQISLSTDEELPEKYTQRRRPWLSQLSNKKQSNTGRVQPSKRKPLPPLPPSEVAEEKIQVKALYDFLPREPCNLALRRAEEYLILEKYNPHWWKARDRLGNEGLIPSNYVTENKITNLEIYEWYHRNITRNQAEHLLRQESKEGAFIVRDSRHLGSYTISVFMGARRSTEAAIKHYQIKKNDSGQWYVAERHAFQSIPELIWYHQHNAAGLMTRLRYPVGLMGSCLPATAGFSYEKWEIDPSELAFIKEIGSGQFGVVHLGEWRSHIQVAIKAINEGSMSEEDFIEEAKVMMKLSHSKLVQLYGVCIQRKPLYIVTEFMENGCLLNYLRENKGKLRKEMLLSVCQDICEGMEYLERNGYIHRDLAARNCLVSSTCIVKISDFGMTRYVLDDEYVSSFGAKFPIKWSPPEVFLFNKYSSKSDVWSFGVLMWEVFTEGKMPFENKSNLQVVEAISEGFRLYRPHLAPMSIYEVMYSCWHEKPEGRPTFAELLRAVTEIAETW

[9] = target: Receptor tyrosine-protein kinase erbB-2 (Homo sapiens) (UniProt P04626); assay: Inhibition of human ERBB2 expressed in mammalian system assessed as remaining enzyme activity at 1000 nM relative to untreated control
Receptor tyrosine-protein kinase erbB-2 (Homo sapiens), sequence (P04626 whole entry): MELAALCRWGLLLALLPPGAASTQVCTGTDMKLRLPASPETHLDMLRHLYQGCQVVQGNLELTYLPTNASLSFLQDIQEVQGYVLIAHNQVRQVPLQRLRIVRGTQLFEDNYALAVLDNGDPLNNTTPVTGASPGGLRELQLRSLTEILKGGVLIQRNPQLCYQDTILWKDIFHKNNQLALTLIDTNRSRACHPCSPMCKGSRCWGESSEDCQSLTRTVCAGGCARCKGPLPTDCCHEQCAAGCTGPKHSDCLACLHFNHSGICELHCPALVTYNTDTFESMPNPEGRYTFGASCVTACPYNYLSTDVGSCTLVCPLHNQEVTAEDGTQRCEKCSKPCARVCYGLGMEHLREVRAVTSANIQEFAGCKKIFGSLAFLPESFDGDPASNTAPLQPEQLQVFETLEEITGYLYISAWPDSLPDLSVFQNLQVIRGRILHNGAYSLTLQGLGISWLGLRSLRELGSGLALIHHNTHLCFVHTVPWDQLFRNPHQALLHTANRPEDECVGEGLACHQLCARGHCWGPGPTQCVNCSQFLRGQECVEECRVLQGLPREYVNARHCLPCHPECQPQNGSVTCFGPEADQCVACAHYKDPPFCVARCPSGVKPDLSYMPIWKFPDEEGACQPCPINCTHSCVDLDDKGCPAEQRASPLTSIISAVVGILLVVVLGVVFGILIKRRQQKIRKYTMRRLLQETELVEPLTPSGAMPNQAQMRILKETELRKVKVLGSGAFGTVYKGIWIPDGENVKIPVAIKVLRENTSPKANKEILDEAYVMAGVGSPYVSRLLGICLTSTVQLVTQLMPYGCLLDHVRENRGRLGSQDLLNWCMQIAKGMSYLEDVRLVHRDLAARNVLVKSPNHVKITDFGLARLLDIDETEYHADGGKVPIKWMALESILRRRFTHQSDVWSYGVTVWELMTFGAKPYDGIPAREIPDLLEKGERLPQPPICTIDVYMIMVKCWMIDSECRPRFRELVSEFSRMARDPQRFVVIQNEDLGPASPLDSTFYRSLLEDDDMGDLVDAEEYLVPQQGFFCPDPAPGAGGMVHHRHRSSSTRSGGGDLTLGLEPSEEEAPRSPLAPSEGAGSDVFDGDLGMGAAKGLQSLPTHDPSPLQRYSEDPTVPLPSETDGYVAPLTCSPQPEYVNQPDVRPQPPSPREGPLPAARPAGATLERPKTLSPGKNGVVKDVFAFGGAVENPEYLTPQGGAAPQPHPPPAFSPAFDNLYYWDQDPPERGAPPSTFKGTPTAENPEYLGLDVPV

[10] = target: Receptor tyrosine-protein kinase erbB-4 (Homo sapiens) (UniProt Q15303); assay: Inhibition of human ERBB4 expressed in bacterial system assessed as remaining enzyme activity at 1000 nM relative to untreated control
Receptor tyrosine-protein kinase erbB-4 (Homo sapiens), sequence (Q15303 whole entry): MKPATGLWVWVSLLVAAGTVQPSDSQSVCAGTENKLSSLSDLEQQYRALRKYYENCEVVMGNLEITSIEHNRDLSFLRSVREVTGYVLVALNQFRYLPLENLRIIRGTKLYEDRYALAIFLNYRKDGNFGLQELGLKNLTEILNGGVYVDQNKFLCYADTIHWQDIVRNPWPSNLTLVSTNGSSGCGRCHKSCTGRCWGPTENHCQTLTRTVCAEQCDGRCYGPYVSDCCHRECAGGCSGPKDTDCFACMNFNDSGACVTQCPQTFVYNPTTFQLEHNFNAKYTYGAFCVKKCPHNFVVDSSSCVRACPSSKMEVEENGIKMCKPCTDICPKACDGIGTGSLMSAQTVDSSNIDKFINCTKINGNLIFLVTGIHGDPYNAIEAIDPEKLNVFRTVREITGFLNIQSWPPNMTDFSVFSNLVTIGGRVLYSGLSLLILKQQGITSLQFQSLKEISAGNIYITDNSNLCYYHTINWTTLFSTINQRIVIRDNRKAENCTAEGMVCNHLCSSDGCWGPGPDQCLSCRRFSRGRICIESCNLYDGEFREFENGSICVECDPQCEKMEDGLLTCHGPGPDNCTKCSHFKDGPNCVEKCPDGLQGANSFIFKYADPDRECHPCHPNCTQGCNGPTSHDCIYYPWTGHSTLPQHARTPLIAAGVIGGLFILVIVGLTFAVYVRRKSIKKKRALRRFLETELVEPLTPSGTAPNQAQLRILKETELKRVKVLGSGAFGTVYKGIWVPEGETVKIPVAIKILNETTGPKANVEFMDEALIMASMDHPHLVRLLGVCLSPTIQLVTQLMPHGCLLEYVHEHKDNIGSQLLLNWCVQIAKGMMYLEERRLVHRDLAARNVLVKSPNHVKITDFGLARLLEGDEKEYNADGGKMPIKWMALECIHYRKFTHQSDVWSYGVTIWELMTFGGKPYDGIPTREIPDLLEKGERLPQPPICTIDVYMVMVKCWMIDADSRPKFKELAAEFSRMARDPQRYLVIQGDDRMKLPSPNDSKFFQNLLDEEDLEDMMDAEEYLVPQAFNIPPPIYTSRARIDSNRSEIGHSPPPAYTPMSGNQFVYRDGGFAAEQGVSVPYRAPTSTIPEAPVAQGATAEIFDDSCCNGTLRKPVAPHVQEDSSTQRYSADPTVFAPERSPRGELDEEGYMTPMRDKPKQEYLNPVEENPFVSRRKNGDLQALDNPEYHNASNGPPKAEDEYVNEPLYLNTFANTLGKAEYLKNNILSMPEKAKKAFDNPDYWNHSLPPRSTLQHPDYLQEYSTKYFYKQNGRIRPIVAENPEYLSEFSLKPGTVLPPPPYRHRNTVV

[11] = Toxicity in human NCI-H1975 cells xenografted BALB/c mouse assessed as mouse mortality at 50 mg/kg, po qd for 14 consecutive days; type: organism-based; conditions: in vivo
NCI-H1975 [12] = assay: Antitumor activity against human NCI-H1975 cells xenografted in BALB/c mouse assessed as inhibition of tumor growth at 50 mg/kg, po qd for 14 consecutive days; type: functional; conditions: read-out: TGI
[13] = AUC (0 to infinity) in ICR mouse at 10 mg/kg, po by LC-MS/MS method; type: ADME, organism-based; parameters: dose 10 mg/kg, time infinity, route oral; conditions: in vivo
A-431 [14] = assay: Antitumor activity against human A431 cells xenografted in BALB/c mouse assessed as inhibition of tumor growth at 50 mg/kg, po qd for 14 consecutive days; type: functional; conditions: A-431, po, read-out: TGI
[15] = target: T2, Cyclin-G-associated kinase (Homo sapiens) (UniProt O14976); assay: Inhibition of human GAK expressed in bacterial system assessed as remaining enzyme activity at 1000 nM relative to untreated control
T2 sequence (whole entry): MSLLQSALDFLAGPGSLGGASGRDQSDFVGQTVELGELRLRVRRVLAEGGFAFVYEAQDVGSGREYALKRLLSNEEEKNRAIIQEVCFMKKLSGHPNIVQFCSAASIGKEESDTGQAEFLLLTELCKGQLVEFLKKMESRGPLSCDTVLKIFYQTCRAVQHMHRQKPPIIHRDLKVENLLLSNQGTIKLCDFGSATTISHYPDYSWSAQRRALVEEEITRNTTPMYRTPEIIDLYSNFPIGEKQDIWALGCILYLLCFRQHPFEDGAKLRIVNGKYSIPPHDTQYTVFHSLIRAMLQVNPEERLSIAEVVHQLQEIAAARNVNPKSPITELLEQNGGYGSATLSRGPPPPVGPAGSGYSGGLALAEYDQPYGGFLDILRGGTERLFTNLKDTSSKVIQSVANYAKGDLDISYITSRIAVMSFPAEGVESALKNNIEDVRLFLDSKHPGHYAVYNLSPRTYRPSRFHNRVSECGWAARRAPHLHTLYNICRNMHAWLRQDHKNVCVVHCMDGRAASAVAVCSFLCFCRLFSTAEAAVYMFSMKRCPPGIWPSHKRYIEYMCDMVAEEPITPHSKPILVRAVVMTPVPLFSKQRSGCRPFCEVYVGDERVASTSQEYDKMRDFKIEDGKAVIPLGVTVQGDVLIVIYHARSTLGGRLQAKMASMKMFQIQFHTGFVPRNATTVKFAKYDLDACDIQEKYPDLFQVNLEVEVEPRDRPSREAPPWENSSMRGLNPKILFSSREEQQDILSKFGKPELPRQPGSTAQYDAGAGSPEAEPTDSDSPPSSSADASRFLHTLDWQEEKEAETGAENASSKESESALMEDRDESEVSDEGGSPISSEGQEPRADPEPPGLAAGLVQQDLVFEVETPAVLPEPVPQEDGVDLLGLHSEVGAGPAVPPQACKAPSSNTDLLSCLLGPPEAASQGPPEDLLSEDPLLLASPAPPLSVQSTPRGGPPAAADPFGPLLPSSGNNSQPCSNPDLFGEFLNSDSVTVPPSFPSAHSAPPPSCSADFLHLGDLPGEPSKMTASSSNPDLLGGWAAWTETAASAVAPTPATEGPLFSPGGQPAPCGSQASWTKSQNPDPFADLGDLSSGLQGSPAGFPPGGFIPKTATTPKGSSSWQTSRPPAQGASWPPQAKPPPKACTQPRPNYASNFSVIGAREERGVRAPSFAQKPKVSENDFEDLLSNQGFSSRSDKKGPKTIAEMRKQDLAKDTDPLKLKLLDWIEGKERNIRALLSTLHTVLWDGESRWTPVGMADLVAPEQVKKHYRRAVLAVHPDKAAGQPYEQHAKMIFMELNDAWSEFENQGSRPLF

NCI-H1975 [16] = conditions: Homo sapiens, at 50 mg/kg
Description: Antitumor activity against human NCI-H1975 cells xenografted in BALB/c mouse assessed as inhibition of tumor cell proliferation by measuring Ki-67 expression at 50 mg/kg, po qd for 14 consecutive days by immunohistochemistry

Work on C=CC(=O)Nc1cccc(-n2c(=O)c(=O)n(C(C)C)c3cnc(Nc4ccc(N5CCN(C)CC5)cc4OC)nc32)c1 yielded an IC50 (A-431 [1]) of 7.77 µM, an AUC(0-t) [2] of 673 ng·h/mL and an IC50 [3] of 0.002 µM. For the same compound, the inhibition (Mus musculus) was “Active”, the pKa [4] was 7.7 and the half-life [5] was 1.1 h. For the same compound, the clearance [6] was 117 mL/min/kg, the Activity [7] was under 1% and the Activity [8] was under 1%. For the same compound, the Activity [9] was under 1%, the Activity [10] was under 1% and the Activity [11] was “Non-Toxic”. It also gave an inhibition in vivo at 50 mg/kg (NCI-H1975 [12]) of 52%, an AUC(0-inf) [13] of 680 ng·h/mL and an inhibition in vivo at 50 mg/kg (A-431 [14]) of 50%. For the same compound, the Activity [15] was under 1% and the inhibition (NCI-H1975 [16]) was “Active”.
